Laboratory results: ChEMBL document CHEMBL3822420, “New peptide deformylase inhibitors design, synthesis and pharmacokinetic assessment” (Bioorg Med Chem Lett, 2016)
Converted amounts (≈) assume the structure as drawn.

Tests used:
[1] = Tmax in Sprague-Dawley rat at 10 mg/kg, po; format: ADME, organism-based; settings: in vivo
Staphylococcus aureus [2] = experiment: Antibacterial activity against methicillin-resistant Staphylococcus aureus 14-2; format: functional
[3] = test system: Staphylococcus epidermidis; experiment: Antibacterial activity against methicillin-sensitive Staphylococcus epidermidis 14-1; format: functional
Staphylococcus aureus [4] = experiment: Antibacterial activity against methicillin-resistant Staphylococcus aureus 14-5; format: functional
[5] = test system: Staphylococcus epidermidis; experiment: Antibacterial activity against methicillin-resistant Staphylococcus epidermidis 14-4; format: functional
[6] = Oral bioavailability in Sprague-Dawley rat at 10 mg/kg; format: ADME, organism-based; settings: in vivo
Enterococcus faecalis [7] = experiment: Antibacterial activity against Enterococcus faecalis 14-1; format: functional
Rattus norvegicus [8] = experiment: Volume of distribution at steady state in Sprague-Dawley rat at 10 mg/kg, po; format: ADME, organism-based; settings: in vivo
Escherichia coli [9] = experiment: Antibacterial activity against Escherichia coli 14-1 expressing extended-spectrum beta-lactamase; format: functional
[10] = (§1) Half life in Sprague-Dawley rat at 10 mg/kg, po; format: ADME, organism-based; settings: Sprague-Dawley, in vivo
Staphylococcus aureus [11] = experiment: Antibacterial activity against methicillin-resistant Staphylococcus aureus 14-4; format: functional
[12] = Cmax in Sprague-Dawley rat at 10 mg/kg, po; format: ADME, organism-based; parameters: dose 10 mg/kg, route oral; settings: in vivo
[13] = AUC (0 to infinity) in Sprague-Dawley rat at 2 mg/kg, iv; format: ADME, organism-based; parameters: dose 2 mg/kg, route intravenous, time infinity; settings: Sprague-Dawley, in vivo
[14] = test system: Staphylococcus epidermidis; experiment: Antibacterial activity against methicillin-resistant Staphylococcus epidermidis 14-1; format: functional
Escherichia coli [15] = experiment: Antibacterial activity against Escherichia coli 14-2 expressing extended-spectrum beta-lactamase; format: functional
[16] = Clearance in Sprague-Dawley rat at 2 mg/kg, iv; format: ADME, organism-based; settings: in vivo
Enterococcus faecalis [17] = experiment: Antibacterial activity against Enterococcus faecalis 14-2; format: functional
Staphylococcus aureus [18] = experiment: Antibacterial activity against methicillin-sensitive Staphylococcus aureus 14-4; format: functional
Escherichia coli [19] = experiment: Antibacterial activity against Escherichia coli 14-2; format: functional
[20] = MRT (0 to t) in Sprague-Dawley rat at 2 mg/kg, iv; format: ADME, organism-based; settings: in vivo
Staphylococcus aureus [21] = experiment: Antibacterial activity against methicillin-resistant Staphylococcus aureus 14-1; format: functional
[22] = test system: Staphylococcus epidermidis; experiment: Antibacterial activity against methicillin-resistant Staphylococcus epidermidis 14-2; format: functional
[23] = (§2) Clearance in Sprague-Dawley rat at 10 mg/kg, po; format: ADME, organism-based; settings: Sprague-Dawley, in vivo
[24] = AUC (0 to t) in Sprague-Dawley rat at 10 mg/kg, po; format: ADME, organism-based; settings: in vivo
[25] = Tmax in Sprague-Dawley rat at 2 mg/kg, iv; format: ADME, organism-based; settings: in vivo
[26] = test system: Staphylococcus epidermidis; experiment: Antibacterial activity against methicillin-sensitive Staphylococcus epidermidis 14-3; format: functional
[27] = Cmax in Sprague-Dawley rat at 2 mg/kg, iv; format: ADME, organism-based; parameters: dose 2 mg/kg, route intravenous; settings: in vivo
[28] = test system: Staphylococcus epidermidis; experiment: Antibacterial activity against methicillin-sensitive Staphylococcus epidermidis 14-2; format: functional
Staphylococcus aureus [29] = experiment: Antibacterial activity against methicillin-sensitive Staphylococcus aureus 14-1; format: functional
[30] = Volume of distribution at steady state in Sprague-Dawley rat at 2 mg/kg, iv; format: ADME, organism-based; settings: in vivo, read-out: Vdss
[31] = Half life in Sprague-Dawley rat at 2 mg/kg, iv; format: ADME, organism-based; settings: in vivo
Staphylococcus aureus [32] = experiment: Antibacterial activity against methicillin-sensitive Staphylococcus aureus 14-2; format: functional
Escherichia coli [33] = experiment: Antibacterial activity against Escherichia coli 14-1; format: functional
[34] = (§3) AUC (0 to infinity) in Sprague-Dawley rat at 10 mg/kg, po; format: ADME, organism-based; parameters: dose 10 mg/kg, time infinity, route oral; settings: Sprague-Dawley, in vivo
Staphylococcus aureus [35] = experiment: Antibacterial activity against methicillin-sensitive Staphylococcus aureus 14-3; format: functional
[36] = AUC (0 to t) in Sprague-Dawley rat at 2 mg/kg, iv; format: ADME, organism-based; settings: Sprague-Dawley, in vivo
Enterococcus faecalis [37] = experiment: Antibacterial activity against Enterococcus faecalis 14-3; format: functional
[38] = test system: Staphylococcus epidermidis; experiment: Antibacterial activity against methicillin-resistant Staphylococcus epidermidis 14-3; format: functional
Enterococcus faecalis [39] = experiment: Antibacterial activity against Enterococcus faecalis 14-5; format: functional
[40] = MRT (0 to t) in Sprague-Dawley rat at 10 mg/kg, po; format: ADME, organism-based; settings: in vivo
Rattus norvegicus [41] = experiment: as §1; format: ADME, organism-based; settings: in vivo
Rattus norvegicus [42] = experiment: as §2; format: ADME, organism-based; settings: in vivo
Rattus norvegicus [43] = experiment: as §3; format: ADME, organism-based; parameters: dose 10 mg/kg, time infinity, route oral; settings: in vivo

Structure (SMILES): CCCC[C@H](CN(O)C=O)C(=O)N1CC2(CC2)C[C@H]1c1nc2ccccc2[nH]1
- Tmax [1]: 0.25 h
- MIC (Staphylococcus aureus [2]): 2 µg/mL (≈ 5.2 µM)
- MIC [3]: 0.5 µg/mL (≈ 1.3 µM)
- MIC (Staphylococcus aureus [4]): 0.5 µg/mL (≈ 1.3 µM)
- MIC [5]: 1 µg/mL (≈ 2.6 µM)
- bioavailability [6]: 37%
- MIC (Enterococcus faecalis [7]): 8 µg/mL (≈ 20.8 µM)
- Vdss (Rattus norvegicus [8]): 27.4 L/kg
- MIC (Escherichia coli [9]): 0.5 µg/mL (≈ 1.3 µM)
- half-life [10]: 4.46 h
- MIC (Staphylococcus aureus [11]): 2 µg/mL (≈ 5.2 µM)
- Cmax [12]: 1680 ng/mL
- AUC(0-inf) [13]: 1270 ng·h/mL
- MIC [14]: 1 µg/mL (≈ 2.6 µM)
- MIC (Escherichia coli [15]): 32 µg/mL (≈ 83.2 µM)
- clearance [16]: 26.4 mL/min/kg
- MIC (Enterococcus faecalis [17]): 8 µg/mL (≈ 20.8 µM)
- MIC (Staphylococcus aureus [18]): 2 µg/mL (≈ 5.2 µM)
- MIC (Escherichia coli [19]): 32 µg/mL (≈ 83.2 µM)
- MRT last [20]: 1.91 h
- MIC (Staphylococcus aureus [21]): 1 µg/mL (≈ 2.6 µM)
- MIC [22]: 1 µg/mL (≈ 2.6 µM)
- CL/F [23]: 70.9 mL/min/kg
- AUC(0-t) [24]: 2340 ng·h/mL
- Tmax [25]: 4.8 min
- MIC [26]: 0.5 µg/mL (≈ 1.3 µM)
- Cmax [27]: 1740 ng/mL
- MIC [28]: 2 µg/mL (≈ 5.2 µM)
- MIC (Staphylococcus aureus [29]): 2 µg/mL (≈ 5.2 µM)
- Vd [30]: 3 L/kg
- half-life [31]: 5.23 h
- MIC (Staphylococcus aureus [32]): 2 µg/mL (≈ 5.2 µM)
- MIC (Escherichia coli [33]): 32 µg/mL (≈ 83.2 µM)
- AUC(0-inf) [34]: 2380 ng·h/mL
- MIC (Staphylococcus aureus [35]): 2 µg/mL (≈ 5.2 µM)
- AUC(0-t) [36]: 1260 ng·h/mL
- MIC (Enterococcus faecalis [37]): 8 µg/mL (≈ 20.8 µM)
- MIC [38]: 0.5 µg/mL (≈ 1.3 µM)
- MIC (Enterococcus faecalis [39]): 64 µg/mL (≈ 166 µM)
- MRT last [40]: 4.13 h

Structure (SMILES): CCCC[C@H](CN(O)C=O)C(=O)N1CC2(CC2)C[C@H]1C(=O)Nc1cc(C(C)(C)C)on1
- Tmax [1]: 0.58 h
- MIC (Staphylococcus aureus [2]): 0.06 µg/mL (≈ 0.138 µM)
- MIC [3]: 0.03 µg/mL (≈ 0.069 µM)
- MIC (Staphylococcus aureus [4]): 0.06 µg/mL (≈ 0.138 µM)
- MIC [5]: 0.03 µg/mL (≈ 0.069 µM)
- bioavailability [6]: 35%
- MIC (Enterococcus faecalis [7]): 0.5 µg/mL (≈ 1.15 µM)
- Vdss (Rattus norvegicus [8]): 36.2 L/kg
- MIC (Escherichia coli [9]): 1 µg/mL (≈ 2.3 µM)
- half-life [10]: 4.52 h
- MIC (Staphylococcus aureus [11]): < 0.008 µg/mL
- Cmax [12]: 860 ng/mL
- AUC(0-inf) [13]: 1140 ng·h/mL
- MIC [14]: 0.03 µg/mL (≈ 0.069 µM)
- MIC (Escherichia coli [15]): 64 µg/mL (≈ 147 µM)
- clearance [16]: 29.6 mL/min/kg
- MIC (Enterococcus faecalis [17]): 0.5 µg/mL (≈ 1.15 µM)
- MIC (Staphylococcus aureus [18]): 0.06 µg/mL (≈ 0.138 µM)
- MIC (Escherichia coli [19]): 64 µg/mL (≈ 147 µM)
- MRT last [20]: 1.5 h
- MIC (Staphylococcus aureus [21]): 0.06 µg/mL (≈ 0.138 µM)
- MIC [22]: 0.03 µg/mL (≈ 0.069 µM)
- CL/F [23]: 90.6 mL/min/kg
- AUC(0-t) [24]: 1950 ng·h/mL
- Tmax [25]: 4.8 min
- MIC [26]: 0.015 µg/mL (≈ 0.0345 µM)
- Cmax [27]: 930 ng/mL
- MIC [28]: 0.125 µg/mL (≈ 0.288 µM)
- MIC (Staphylococcus aureus [29]): 0.125 µg/mL (≈ 0.288 µM)
- Vd [30]: 2.7 L/kg
- half-life [31]: 1.23 h
- MIC (Staphylococcus aureus [32]): 0.125 µg/mL (≈ 0.288 µM)
- MIC (Escherichia coli [33]): 64 µg/mL (≈ 147 µM)
- AUC(0-inf) [34]: 1980 ng·h/mL
- MIC (Staphylococcus aureus [35]): 0.25 µg/mL (≈ 0.575 µM)
- AUC(0-t) [36]: 1140 ng·h/mL
- MIC (Enterococcus faecalis [37]): 0.5 µg/mL (≈ 1.15 µM)
- MIC [38]: 0.015 µg/mL (≈ 0.0345 µM)
- MIC (Enterococcus faecalis [39]): > 128 µg/mL
- MRT last [40]: 3.43 h

Structure (SMILES): CCCC[C@H](CN(O)C=O)C(=O)N1CC2(CC2)C[C@H]1C(=O)Nc1ccc(C)c(Nc2nccc(-c3cccnc3)n2)c1
- Tmax [1]: 0.25 h
- MIC (Staphylococcus aureus [2]): 0.015 µg/mL (≈ 0.0262 µM)
- MIC [3]: 0.015 µg/mL (≈ 0.0262 µM)
- MIC (Staphylococcus aureus [4]): < 0.008 µg/mL
- MIC [5]: < 0.008 µg/mL
- bioavailability [6]: 3%
- MIC (Enterococcus faecalis [7]): 0.03 µg/mL (≈ 0.0525 µM)
- Vdss (Rattus norvegicus [8]): 1772 L/kg
- MIC (Escherichia coli [9]): 4 µg/mL (≈ 7 µM)
- t1/2 (Rattus norvegicus [41]): 2.24 h
- MIC (Staphylococcus aureus [11]): < 0.008 µg/mL
- Cmax [12]: 100 ng/mL
- AUC(0-inf) [13]: 892 ng·h/mL
- MIC [14]: < 0.008 µg/mL
- MIC (Escherichia coli [15]): > 128 µg/mL
- clearance [16]: 37.7 mL/min/kg
- MIC (Enterococcus faecalis [17]): 0.015 µg/mL (≈ 0.0262 µM)
- MIC (Staphylococcus aureus [18]): 0.015 µg/mL (≈ 0.0262 µM)
- MIC (Escherichia coli [19]): > 128 µg/mL
- MRT last [20]: 1.15 h
- MIC (Staphylococcus aureus [21]): 0.015 µg/mL (≈ 0.0262 µM)
- CL (Rattus norvegicus [42]): 5.57 mL/min/kg
- AUC(0-t) [24]: 126 ng·h/mL
- Tmax [25]: 4.8 min
- MIC [26]: < 0.008 µg/mL
- Cmax [27]: 1080 ng/mL
- MIC [28]: < 0.008 µg/mL
- MIC (Staphylococcus aureus [29]): 0.015 µg/mL (≈ 0.0262 µM)
- Vd [30]: 2.6 L/kg
- half-life [31]: 3.6 h
- MIC (Staphylococcus aureus [32]): 0.015 µg/mL (≈ 0.0262 µM)
- MIC (Escherichia coli [33]): > 128 µg/mL
- AUC (Rattus norvegicus [43]): 134 ng·h/mL
- MIC (Staphylococcus aureus [35]): 0.015 µg/mL (≈ 0.0262 µM)
- AUC(0-t) [36]: 881 ng·h/mL
- MIC (Enterococcus faecalis [37]): 0.03 µg/mL (≈ 0.0525 µM)
- MIC (Enterococcus faecalis [39]): > 128 µg/mL
- MRT last [40]: 3.32 h
